In PubChem BioAssay AID328 (DTP/NCI, 2004):
Values joined by “and” are separate entries in the source; they are usually repeats but may differ in a detail not shown here. Equal entries are not always repeated. Toxic doses and inconclusive results are not listed. The calls were made as follows: active = survival T/C of 150% or more; inactive = T/C below 125% in these data.

Tested on: BDF1 mice, P388 leukemia ip, median survival T/C
Experiment: NCI In Vivo Anticancer Drug Screen. Data for tumor model P388 Leukemia (intraperitoneal) in B6D2F1 (BDF1) mice
Settings: endpoint: median survival time, higher = longer survival
Method: The antitumor activity of compounds was measured in mice bearing transplantable tumors. Survival or tumor size were measured and the results are expressed as the measurement made in the treated group (T) divided by the measurement made in the vehicle treated control group (C). The tumor model used in this assay is P388 Leukemia (intraperitoneal) in B6D2F1 (BDF1) mice

[1] = dose: 50.0 mg/kg/injection, schedule: Q01DX009 (ip), vehicle: saline
[2] = dose: 100.0 mg/kg/injection, schedule: Q01DX009 (ip), vehicle: Klucel (hydroxypropylcellulose) (HPC)
[3] = dose: 200.0 mg/kg/injection, schedule: Q01DX009 (ip), vehicle: Klucel (hydroxypropylcellulose) (HPC)
[4] = dose: 400.0 mg/kg/injection, schedule: Q01DX009 (ip), vehicle: Klucel (hydroxypropylcellulose) (HPC)
[5] = dose: 100.0 mg/kg/injection, schedule: Q01DX009 (ip), vehicle: saline with Tween-80
[6] = dose: 200.0 mg/kg/injection, schedule: Q01DX009 (ip), vehicle: saline with Tween-80
[7] = dose: 400.0 mg/kg/injection, schedule: Q01DX009 (ip), vehicle: saline with Tween-80

Measured: T/C

CNC(=S)N/N=C(/C)CCC(=O)O
inactive: dose: 6.75 mg/kg/injection, schedule: Q01DX009 (ip), vehicle: saline with Tween-80 87 % of control | dose: 13.5 mg/kg/injection, schedule: Q01DX009 (ip), vehicle: saline with Tween-80 88 % of control | dose: 27.0 mg/kg/injection, schedule: Q01DX009 (ip), vehicle: saline with Tween-80 86 % of control

O=C(Oc1ccc([N+](=O)[O-])cc1)c1ccc(CBr)cc1
inactive: dose: 25.0 mg/kg/injection, schedule: Q01DX009 (ip), vehicle: saline 95 % of control | [1] 100 % of control | dose: 100.0 mg/kg/injection, schedule: Q04DX003 (ip), vehicle: saline 90 % of control | dose: 200.0 mg/kg/injection, schedule: Q04DX003 (ip), vehicle: saline 86 % of control

CCOC(=O)C(=O)C[n+]1cc2ccccc2cc1/C=N/O
inactive: dose: 50.0 mg/kg/injection, schedule: Q01DX001 (ip), vehicle: saline 100 % of control | dose: 100.0 mg/kg/injection, schedule: Q01DX001 (ip), vehicle: saline 100 % of control | dose: 200.0 mg/kg/injection, schedule: Q01DX001 (ip), vehicle: saline 100 % of control

Cc1nnc2ncccn12
inactive: [1] 96 % of control and 102 % of control and 106 % of control | dose: 100.0 mg/kg/injection, schedule: Q01DX009 (ip), vehicle: saline 97 % of control and 102 % of control (2×) | dose: 200.0 mg/kg/injection, schedule: Q01DX009 (ip), vehicle: saline 115 % of control | dose: 400.0 mg/kg/injection, schedule: Q01DX009 (ip), vehicle: saline 93 % of control

CCN1C[C@]2(COC)[C@H](O)C[C@H](OC)[C@]34C1[C@H]([C@H](OC)[C@H]23)[C@]1(OC(C)=O)[C@H]2[C@@H](OC(=O)c3ccccc3)[C@](O)(C[C@H]24)[C@@H](OC)[C@@H]1O
inactive: dose: 0.13 mg/kg/injection, schedule: Q01DX009 (ip), vehicle: Klucel (hydroxypropylcellulose) (HPC) 93 % of control | dose: 0.25 mg/kg/injection, schedule: Q01DX009 (ip), vehicle: Klucel (hydroxypropylcellulose) (HPC) 91 % of control

COc1ccccc1NC(=O)c1ccc(Cl)cc1
inactive: [2] 100 % of control | dose: 100.0 mg/kg/injection, schedule: Q04DX003 (ip), vehicle: Klucel (hydroxypropylcellulose) (HPC) 100 % of control | [3] 100 % of control | dose: 200.0 mg/kg/injection, schedule: Q04DX003 (ip), vehicle: Klucel (hydroxypropylcellulose) (HPC) 100 % of control | [4] 104 % of control | dose: 400.0 mg/kg/injection, schedule: Q04DX003 (ip), vehicle: Klucel (hydroxypropylcellulose) (HPC) 109 % of control

O=C(Nc1ccccc1)Nn1cnc2ccccc2c1=O
inactive: dose: 100.0 mg/kg/injection, schedule: Q04DX003 (ip), vehicle: saline with Tween-80 90 % of control | dose: 200.0 mg/kg/injection, schedule: Q04DX003 (ip), vehicle: saline with Tween-80 100 % of control | dose: 400.0 mg/kg/injection, schedule: Q04DX003 (ip), vehicle: saline with Tween-80 100 % of control

CC1(C)OC2OC(COC(=O)c3ccccc3)C(=O)C2O1 (configuration not stated)
inactive: [5] 92 % of control | [6] 92 % of control | [7] 101 % of control

Cc1ccc2nc3c4ccccc4c4ccccc4c3nc2c1
inactive: [2] 109 % of control | [3] 90 % of control | [4] 100 % of control

COC1(OC)C2(Cl)CC(=O)C3CC(=O)C3C1(Cl)C(Cl)=C2Cl (configuration not stated)
inactive: dose: 100.0 mg/kg/injection, schedule: Q01DX001 (ip), vehicle: Klucel (hydroxypropylcellulose) (HPC) 103 % of control | dose: 200.0 mg/kg/injection, schedule: Q01DX001 (ip), vehicle: Klucel (hydroxypropylcellulose) (HPC) 107 % of control | dose: 400.0 mg/kg/injection, schedule: Q01DX001 (ip), vehicle: Klucel (hydroxypropylcellulose) (HPC) 96 % of control

Cc1[nH]ncc1Br
inactive: [5] 105 % of control | [6] 98 % of control | [7] 105 % of control

O=C(Nc1ccc2ccccc2c1)c1ccccc1
inactive: dose: 100.0 mg/kg/injection, schedule: Q01DX001 (ip), vehicle: saline sonified 95 % of control | dose: 200.0 mg/kg/injection, schedule: Q01DX001 (ip), vehicle: saline sonified 100 % of control | dose: 400.0 mg/kg/injection, schedule: Q01DX001 (ip), vehicle: saline sonified 100 % of control

O=C(C=C(C(F)(F)F)C(F)(F)F)c1ccco1
inactive: dose: 6.25 mg/kg/injection, schedule: Q01DX009 (ip), vehicle: saline with Tween-80 120 % of control | dose: 12.5 mg/kg/injection, schedule: Q01DX009 (ip), vehicle: saline with Tween-80 120 % of control
